Measured values from patent US4882313A, “Carboxamide derivatives of glycopeptides” (SmithKline Beckman Corporation, priority 1987, dated 1989).

Columns and labels:
Staphylococcus aureus = assay: standard microtiter assay, minimum inhibitory concentration; format: cell-based; details: for minimum inhibitory concentration of antibiotic, Test Organism 1: Test Organism 1, strain of Staphylococcus aureus; for minimum inhibitory concentration of antibiotic, Test Organism 2: Test Organism 2, strain of Staphylococcus aureus; for minimum inhibitory concentration of antibiotic, Test Organism 3: Test Organism 3, strain of Staphylococcus aureus; for minimum inhibitory concentration of antibiotic, Test Organism 4: Test Organism 4, strain of Staphylococcus aureus; for minimum inhibitory concentration of antibiotic, Test Organism 5: Test Organism 5, strain of Staphylococcus aureus
From the text: (§1) Representative results of standard microtiter assays are reported in Table 1 which follows, as the minimum inhibitory concentration of antibiotic (mg/ml). In Table 1, test organisms 1-5 were different strains of Staphylococcus aureus; 6, 8, 11, 13 and 14 were different strains of Staphylococcus epidermidis; 7 was a Staphylococcus haemolyticus; 9 and 10 were different strains of Streptococcus faecalis; and 12 was a Staphylococcus saprophyticus.

[1] = system: Staphylococcus haemolyticus; assay: as above; format: cell-based; details: Test Organism 7, Staphylococcus haemolyticus
From the text: as §1

[2] = system: Staphylococcus saprophyticus; assay: as above; format: cell-based; details: Test Organism 12, Staphylococcus saprophyticus
From the text: as §1

Streptococcus faecalis = assay: as above; format: cell-based; details: for minimum inhibitory concentration of antibiotic, Test Organism 9: Test Organism 9, strain of Streptococcus faecalis; for minimum inhibitory concentration of antibiotic, Test Organism 10: Test Organism 10, strain of Streptococcus faecalis
From the text: as §1

[3] = system: Staphylococcus epidermidis; assay: as above; format: cell-based; set-up: minimum inhibitory concentration of antibiotic, Test Organism 8: unit not given here; details: for minimum inhibitory concentration of antibiotic, Test Organism 6: Test Organism 6, strain of Staphylococcus epidermidis; for minimum inhibitory concentration of antibiotic, Test Organism 8: Test Organism 8, strain of Staphylococcus epidermidis; for minimum inhibitory concentration of antibiotic, Test Organism 11: Test Organism 11, strain of Staphylococcus epidermidis; for minimum inhibitory concentration of antibiotic, Test Organism 13: Test Organism 13, strain of Staphylococcus epidermidis; for minimum inhibitory concentration of antibiotic, Test Organism 14: Test Organism 14, strain of Staphylococcus epidermidis
From the text: as §1

[4] = pI (analytical data, Table 2); format: physicochemical
From the text: Using substantially the procedures of both Examples 1 and 2, the compounds of Examples 3-15 were obtained by using the appropriate glycopeptide and amine starting materials.

| Compound | pI [4] | minimum inhibitory concentration of antibiotic, Test Organism 1 (Staphylococcus aureus) [µg/mL] | minimum inhibitory concentration of antibiotic, Test Organism 2 (Staphylococcus aureus) [µg/mL] | minimum inhibitory concentration of antibiotic, Test Organism 3 (Staphylococcus aureus) [µg/mL] | minimum inhibitory concentration of antibiotic, Test Organism 4 (Staphylococcus aureus) [µg/mL] | minimum inhibitory concentration of antibiotic, Test Organism 5 (Staphylococcus aureus) [µg/mL] | minimum inhibitory concentration of antibiotic, Test Organism 7 [1] [µg/mL] | minimum inhibitory concentration of antibiotic, Test Organism 12 [2] [µg/mL] | minimum inhibitory concentration of antibiotic, Test Organism 9 (Streptococcus faecalis) [µg/mL] | minimum inhibitory concentration of antibiotic, Test Organism 10 (Streptococcus faecalis) [µg/mL] | minimum inhibitory concentration of antibiotic, Test Organism 6 [3] [µg/mL] | minimum inhibitory concentration of antibiotic, Test Organism 8 [3] | minimum inhibitory concentration of antibiotic, Test Organism 11 [3] [µg/mL] | minimum inhibitory concentration of antibiotic, Test Organism 13 [3] [µg/mL] | minimum inhibitory concentration of antibiotic, Test Organism 14 [3] [µg/mL] |
| --- | --- | --- | --- | --- | --- | --- | --- | --- | --- | --- | --- | --- | --- | --- | --- |
| CCCCCCCCCC(=O)NC1C(Oc2c3cc4cc2Oc2c(Cl)cc(cc2Cl)C(O)C2NC(=O)C(NC(=O)C4NC(=O)C4NC(=O)C(NC(=O)C(NC)c5ccc(O)c(c5)Oc5cc(O)c(Cl)c4c5)C(O)c4ccc(c(Cl)c4)O3)c3ccc(O)c(c3)-c3c(OC4OC(CO)C(O)C(O)C4O)cc(O)cc3C(C(=O)NN)NC2=O)OC(C(=O)NN)C(O)C1O (stereo not drawn) [Compound 2k, Ardacin A dihydrazide] | 7.0 | 3100 | 3100 | 1600 | 6300 | 3100 | 12500 | 6300 | 400 | 100 | 12500 | 12.5 | 12500 | 3100 | 3100 |
| CNC1C(=O)NC2C(=O)NC(C(=O)NC3C(=O)NC4C(=O)NC(C(=O)NC(C(N)=O)c5cc(O)cc(O)c5-c5cc4ccc5O)C(O)c4cc(Cl)c(c(Cl)c4)Oc4cc3cc(c4O)Oc3ccc(cc3Cl)C2O)c2cc(cc(O)c2Cl)Oc2cc1ccc2O (stereo not drawn) [Compound 2c, Ardacin aglycone amide] | 7.1 | 200 | 200 | 400 | 400 | 200 | 800 | 200 | 200 | 400 | 400 | 0.4 | 400 | 400 | 200 |
| CCCCCCCCCC(=O)NC1C(Oc2c3cc4cc2Oc2c(Cl)cc(cc2Cl)C(O)C2NC(=O)C(NC(=O)C4NC(=O)C4NC(=O)C(NC(=O)C(NC)c5ccc(O)c(c5)Oc5cc(O)c(Cl)c4c5)C(O)c4ccc(c(Cl)c4)O3)c3ccc(O)c(c3)-c3c(OC4OC(CO)C(O)C(O)C4O)cc(O)cc3C(C(N)=O)NC2=O)OC(C(N)=O)C(O)C1O (stereo not drawn) [Compound 2j, Ardacin A diamide] | 7.2 | 800 | 1600 | 800 | 3100 | 1600 | 3100 | 3100 | 200 | 100 | 6300 | 6.3 | 6300 | 3100 | 800 |

Second part, led by results:

| pI [4] | Compound | minimum inhibitory concentration of antibiotic, Test Organism 1 (Staphylococcus aureus) [µg/mL] | minimum inhibitory concentration of antibiotic, Test Organism 2 (Staphylococcus aureus) [µg/mL] | minimum inhibitory concentration of antibiotic, Test Organism 3 (Staphylococcus aureus) [µg/mL] | minimum inhibitory concentration of antibiotic, Test Organism 4 (Staphylococcus aureus) [µg/mL] | minimum inhibitory concentration of antibiotic, Test Organism 5 (Staphylococcus aureus) [µg/mL] | minimum inhibitory concentration of antibiotic, Test Organism 7 [1] [µg/mL] | minimum inhibitory concentration of antibiotic, Test Organism 12 [2] [µg/mL] | minimum inhibitory concentration of antibiotic, Test Organism 9 (Streptococcus faecalis) [µg/mL] | minimum inhibitory concentration of antibiotic, Test Organism 10 (Streptococcus faecalis) [µg/mL] | minimum inhibitory concentration of antibiotic, Test Organism 6 [3] [µg/mL] | minimum inhibitory concentration of antibiotic, Test Organism 8 [3] | minimum inhibitory concentration of antibiotic, Test Organism 11 [3] [µg/mL] | minimum inhibitory concentration of antibiotic, Test Organism 13 [3] [µg/mL] | minimum inhibitory concentration of antibiotic, Test Organism 14 [3] [µg/mL] |
| --- | --- | --- | --- | --- | --- | --- | --- | --- | --- | --- | --- | --- | --- | --- | --- |
| 7.8 | CNC1C(=O)NC2C(=O)NC(C(=O)NC3C(=O)NC4C(=O)NC(C(=O)NC(C(=O)NCCN)c5cc(O)cc(OC6OC(CO)C(O)C(O)C6O)c5-c5cc4ccc5O)C(O)c4cc(Cl)c(c(Cl)c4)Oc4cc3cc(c4O)Oc3ccc(cc3Cl)C2O)c2cc(cc(O)c2Cl)Oc2cc1ccc2O (stereo not drawn) [Compound 2o, Ardacin mannosylaglycone-(2-aminoethyl amide)] | 400 | 400 | 400 | 400 | 400 | 1600 | 400 | 200 | 200 | 400 | 0.8 | 800 | 100 | – |
| 7.1 | CNC1C(=O)NC2C(=O)NC(C(=O)NC3C(=O)NC4C(=O)NC(C(=O)NC(C(N)=O)c5cc(O)cc(OC6OC(CO)C(O)C(O)C6O)c5-c5cc4ccc5O)C(O)c4cc(Cl)c(c(Cl)c4)Oc4cc3cc(c4O)Oc3ccc(cc3Cl)C2O)c2cc(cc(O)c2Cl)Oc2cc1ccc2O (stereo not drawn) [Compound 2n, Ardacin mannosylaglycone amide] | 200 | 800 | 100 | 3100 | 400 | 1600 | 1600 | 200 | – | 1600 | – | 6300 | 1600 | 1600 |
